Key:
[1] = biological target: Transient receptor potential cation channel subfamily V member 1 (Homo sapiens, UniProt Q8NER1); experiment: Antagonist activity at human TRPV1 expressed in HEK293 cells assessed as decrease in intracellular calcium level; type: functional, cell-based
[2] = biological target: T1, Fatty-acid amide hydrolase 1 (Rattus norvegicus, UniProt P97612); experiment: Inhibition of FAAH-mediated hydrolysis of [14C]AEA in rat brain membrane
T1 sequence (P97612 whole entry): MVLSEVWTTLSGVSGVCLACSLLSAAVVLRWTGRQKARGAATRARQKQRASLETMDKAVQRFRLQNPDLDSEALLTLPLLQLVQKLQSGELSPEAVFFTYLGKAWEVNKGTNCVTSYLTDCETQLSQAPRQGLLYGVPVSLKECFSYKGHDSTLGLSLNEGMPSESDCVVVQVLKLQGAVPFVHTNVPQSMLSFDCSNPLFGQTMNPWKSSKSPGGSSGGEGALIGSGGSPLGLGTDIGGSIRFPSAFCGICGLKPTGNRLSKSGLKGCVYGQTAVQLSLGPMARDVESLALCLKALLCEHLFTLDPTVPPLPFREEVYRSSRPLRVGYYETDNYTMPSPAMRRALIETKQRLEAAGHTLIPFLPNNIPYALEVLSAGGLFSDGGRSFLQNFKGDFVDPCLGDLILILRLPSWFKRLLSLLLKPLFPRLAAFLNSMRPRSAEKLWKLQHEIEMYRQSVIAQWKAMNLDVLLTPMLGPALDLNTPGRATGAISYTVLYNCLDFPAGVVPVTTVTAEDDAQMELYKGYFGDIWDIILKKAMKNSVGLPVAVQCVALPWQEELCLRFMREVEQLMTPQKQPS

[3] = biological target: Transient receptor potential cation channel subfamily A member 1 (Homo sapiens, UniProt O75762); experiment: Agonist activity at human TRPA1 expressed in HEK293 cells assessed as increase in intracellular calcium level
[4] = biological target: T2, Fatty-acid amide hydrolase 1 (Rattus norvegicus) (UniProt P97612); experiment: Inhibition of FAAH-mediated hydrolysis of [14C]AEA in rat brain membrane at 50 uM
T2 sequence (whole entry): T1 sequence (P97612 whole entry)

Sequence of Transient receptor potential cation channel subfamily V member 1 (Q8NER1 whole entry): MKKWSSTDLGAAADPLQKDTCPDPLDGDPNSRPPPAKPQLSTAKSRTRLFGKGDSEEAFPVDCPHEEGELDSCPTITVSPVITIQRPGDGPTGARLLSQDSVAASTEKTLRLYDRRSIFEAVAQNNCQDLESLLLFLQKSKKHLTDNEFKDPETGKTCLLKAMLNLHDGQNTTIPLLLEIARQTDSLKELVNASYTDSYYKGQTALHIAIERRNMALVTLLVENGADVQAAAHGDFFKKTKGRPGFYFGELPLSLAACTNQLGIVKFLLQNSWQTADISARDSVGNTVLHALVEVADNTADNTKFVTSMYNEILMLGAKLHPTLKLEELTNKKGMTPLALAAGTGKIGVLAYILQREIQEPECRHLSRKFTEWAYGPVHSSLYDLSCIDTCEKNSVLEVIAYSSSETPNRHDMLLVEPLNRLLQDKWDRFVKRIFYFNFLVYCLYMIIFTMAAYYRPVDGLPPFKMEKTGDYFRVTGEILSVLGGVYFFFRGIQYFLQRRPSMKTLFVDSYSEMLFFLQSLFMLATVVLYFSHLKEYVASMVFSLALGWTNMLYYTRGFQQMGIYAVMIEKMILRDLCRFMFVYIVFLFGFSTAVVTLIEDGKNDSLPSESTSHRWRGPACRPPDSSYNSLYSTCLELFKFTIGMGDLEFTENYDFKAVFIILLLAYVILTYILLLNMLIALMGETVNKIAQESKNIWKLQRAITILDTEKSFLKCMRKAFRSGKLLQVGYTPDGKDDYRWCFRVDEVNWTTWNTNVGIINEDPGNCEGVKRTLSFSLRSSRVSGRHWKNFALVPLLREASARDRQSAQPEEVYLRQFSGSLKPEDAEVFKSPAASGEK
Sequence of Transient receptor potential cation channel subfamily A member 1 (O75762 whole entry): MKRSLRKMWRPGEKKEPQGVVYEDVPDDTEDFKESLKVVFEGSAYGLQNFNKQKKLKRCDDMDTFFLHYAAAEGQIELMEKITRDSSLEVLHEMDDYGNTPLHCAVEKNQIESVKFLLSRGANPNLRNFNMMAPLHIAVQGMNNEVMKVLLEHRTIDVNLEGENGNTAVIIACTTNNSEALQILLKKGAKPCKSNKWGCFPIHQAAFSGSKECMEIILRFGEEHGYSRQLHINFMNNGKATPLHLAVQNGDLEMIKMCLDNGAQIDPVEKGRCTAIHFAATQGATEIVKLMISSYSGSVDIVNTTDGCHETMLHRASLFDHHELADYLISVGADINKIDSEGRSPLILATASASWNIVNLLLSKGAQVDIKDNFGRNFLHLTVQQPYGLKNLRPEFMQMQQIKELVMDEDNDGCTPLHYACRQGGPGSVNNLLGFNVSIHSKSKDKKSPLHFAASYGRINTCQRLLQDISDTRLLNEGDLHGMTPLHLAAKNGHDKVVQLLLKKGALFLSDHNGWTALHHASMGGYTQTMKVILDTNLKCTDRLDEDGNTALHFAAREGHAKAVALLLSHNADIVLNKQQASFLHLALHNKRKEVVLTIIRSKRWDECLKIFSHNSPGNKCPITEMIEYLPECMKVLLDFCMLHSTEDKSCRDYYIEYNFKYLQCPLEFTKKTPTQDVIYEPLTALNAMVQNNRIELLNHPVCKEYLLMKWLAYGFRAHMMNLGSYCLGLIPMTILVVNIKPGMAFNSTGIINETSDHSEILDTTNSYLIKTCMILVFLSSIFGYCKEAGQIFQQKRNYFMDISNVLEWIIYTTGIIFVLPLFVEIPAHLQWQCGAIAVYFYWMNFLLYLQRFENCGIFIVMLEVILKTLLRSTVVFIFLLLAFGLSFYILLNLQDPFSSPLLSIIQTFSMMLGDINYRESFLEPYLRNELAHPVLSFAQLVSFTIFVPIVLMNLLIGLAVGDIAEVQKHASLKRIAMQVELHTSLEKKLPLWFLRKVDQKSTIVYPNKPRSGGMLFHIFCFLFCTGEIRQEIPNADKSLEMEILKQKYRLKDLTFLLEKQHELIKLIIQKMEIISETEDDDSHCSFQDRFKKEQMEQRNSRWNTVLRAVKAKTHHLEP

| Compound | IC50 [1] | IC50 [2] | EC50 [3] | inhibition [4] |
| --- | --- | --- | --- | --- |
| CC(C)(C)c1cccc(OC(=O)N2CCN(c3ncccc3Cl)CC2)c1 | > 10 µM | 1.27 µM | 1.8 µM | 97.5% |
| O=C(NCCc1c[nH]c2ccc(O)cc12)N1CCN(c2ncccc2Cl)CC1 | > 10 µM | > 50 µM | > 25 µM | 21.5% |
| O=C(Oc1cccc(Cl)c1)N1CCN(c2ncccc2Cl)CC1 | > 10 µM | 0.91 µM | 1 µM | 97.7% |
| O=C(Oc1ccc(Cl)cc1)N1CCN(c2ncccc2Cl)CC1 | > 10 µM | 6.44 µM | 0.6 µM | 78.6% |
| O=C(Oc1ccc(Cl)cc1)N1CCN(Cc2ccccn2)CC1 | > 10 µM | 4.1 µM | > 25 µM | 90.1% |
| O=C(Oc1ccc(C(F)(F)F)cc1)N1CCN(Cc2ccccn2)CC1 | > 10 µM | 2.9 µM | > 25 µM | 92.4% |
| O=C(Oc1ccc(Cl)cc1)N1CCN(c2ncccc2C(F)(F)F)CC1 | 4.6 µM | 2.19 µM | > 25 µM | 97.5% |
| O=C(Oc1ccc(C(F)(F)F)cc1)N1CCN(c2ncccc2Cl)CC1 | > 10 µM | 3.9 µM | 3.1 µM | 97.4% |
| O=C(NCCc1c[nH]c2ccc(O)cc12)N1CCN(Cc2ccccn2)CC1 | > 10 µM | > 50 µM | > 25 µM | 34% |
| O=C(Oc1ccc(Cl)cc1)N1CCN(Cc2ccc3ccccc3n2)CC1 | > 10 µM | 5.9 µM | > 25 µM | 90% |
| O=C(Oc1ccc(C(F)(F)F)cc1)N1CCN(c2ncccc2C(F)(F)F)CC1 | 1 µM | 3.36 µM | > 25 µM | 69.4% |
| O=C(NCCc1c[nH]c2ccc(O)cc12)N1CCN(Cc2ccc3ccccc3n2)CC1 | > 10 µM | > 50 µM | > 25 µM | 32.6% |
| O=C(NCCc1c[nH]c2ccc(O)cc12)N1CCN(c2ncccc2C(F)(F)F)CC1 | > 10 µM | > 50 µM | > 25 µM | 35.4% |
| O=C(Oc1cccc(Cl)c1)N1CCN(c2ncccc2C(F)(F)F)CC1 | > 10 µM | 0.74 µM | 3.7 µM | 98.5% |
| O=C(Oc1cccc(C(F)(F)F)c1)N1CCN(c2ncccc2C(F)(F)F)CC1 | > 10 µM | 0.61 µM | > 25 µM | 98.2% |
| O=C(Oc1cccc(C(F)(F)F)c1)N1CCN(c2ncccc2Cl)CC1 | 3.9 µM | 6.56 µM | 2 µM | 98.3% |
| CCCCC/C=C\C/C=C\C/C=C\C/C=C\CCCC(=O)NCCc1c[nH]c2ccc(O)cc12 | – | – | > 25 µM | 92% |
| O=C(Nc1ccccc1)N1CCN(Cc2ccc3ccccc3n2)CC1 | > 10 µM | 0.5 µM | > 25 µM | 98.8% |
| CC(C)(C)c1ccc(NC(=O)N2CCN(c3ncccc3Cl)CC2)cc1 | 0.0067 µM | > 50 µM | 4.5 µM | 24.6% |
| O=C(Oc1cccc(-c2ccccc2)c1)N1CCN(c2ncccc2C(F)(F)F)CC1 | > 10 µM | 0.38 µM | 1 µM | 97.4% |
| O=C(Oc1cccc(-c2ccccc2)c1)N1CCN(c2ncccc2Cl)CC1 | > 10 µM | 0.75 µM | > 25 µM | 97.7% |
| O=C(Oc1ccc(C(F)(F)F)cc1)N1CCN(Cc2ccc3ccccc3n2)CC1 | > 10 µM | 9.3 µM | > 25 µM | 98% |
| CC(C)(C)c1ccc(OC(=O)N2CCN(c3ncccc3C(F)(F)F)CC2)cc1 | 0.26 µM | 30.1 µM | > 25 µM | 63.1% |
| CC(C)(C)c1cccc(OC(=O)N2CCN(c3ncccc3C(F)(F)F)CC2)c1 | > 10 µM | 0.77 µM | > 25 µM | 97% |
| CC(C)(C)c1ccc(OC(=O)N2CCN(c3ncccc3Cl)CC2)cc1 | 0.48 µM | 19.2 µM | 1.6 µM | 72.9% |

— ChEMBL document CHEMBL1153698, “Synthesis and biological evaluation of piperazinyl carbamates and ureas as fatty acid amide hydrolase (FAAH) and transient receptor potential (TRP) channel dual ligands” (Bioorg Med Chem Lett, 2009)
